We go through nine compounds from ChEMBL document CHEMBL1201862, “PubChem BioAssay data set” (2004).

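Cells were grown in 96-well plates and exposed to each compound for 48 hours at five concentrations; endpoints were interpolated linearly between bracketing concentrations, or set to the highest concentration if not reached. GI50 = concentration required for 50% inhibition of growth.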 The source made the active and inactive calls. No stated cut-off is given here; in the data, active = GI50 up to about 1.1 µM and inactive = higher. A value given as a limit tells only on which side of the number the result lay.

Among the test systems are UACC-62; HCT-15; U-251; K562; SW-620; HOP-62; SR; COLO 205; NCI-H460; Malme-3M; NCI-H226; HCT-116; IGROV-1; HL-60; RPMI-8226; A549; TK-10.
What all share (experiment): growth of human tumour cells (NCI), 48 h

Turning to `CC(/C=C/NNC1=NN=C(c2ccccc2)C(c2ccccc2)N1)Sc1ccccc1N` (stereo not given), the GI50 was 3.39 µM (inactive) in the test with UACC-62; 4.89 µM in the test on HCT-15; 2.34 µM (inactive) in the test with U-251; 6.24 µM (inactive) in the test with K562; 2.75 µM (inactive) in the test with SW-620; 17.9 µM (inactive) in the test with HOP-62. In addition, the GI50 is 2.99 µM (inactive) with SR; 15.3 µM (inactive) in the test on COLO 205; 9.98 µM (inactive) in the test on NCI-H460; 7.05 µM (inactive) in the test on Malme-3M; 10.9 µM (inactive) in the test with NCI-H226; 6.14 µM (inactive) with HCT-116. Further, the GI50 in the test on IGROV-1 is 14.4 µM (inactive); in the test on HL-60, 2.36 µM (inactive); with RPMI-8226 it was 3.64 µM (inactive); in the test with A549, 11.4 µM (inactive); in the test with TK-10, 14.2 µM (inactive).

On to `O=c1[nH]c(S)nc2c1sc(=S)n2-c1ccccc1`, for which the GI50 was > 100 µM (inactive) in the test on UACC-62; greater than 100 µM in the test with HCT-15; > 100 µM (inactive) in the test on U-251; > 100 µM (inactive) in the test on K562; > 100 µM (inactive) in the test on SW-620; > 100 µM (inactive) in the test on HOP-62. Moreover, the GI50 with SR, in the test on COLO 205, with NCI-H460, with Malme-3M, in the test on NCI-H226 and in the test on HCT-116 was > 100 µM (inactive) in each case. For the same compound, the GI50 in the test with IGROV-1, in the test with HL-60, in the test with RPMI-8226, in the test on A549 and with TK-10 was > 100 µM (inactive) each time.

`COc1ccc(-c2cc(-c3cc(Cl)cc(Br)c3O)nc(O)n2)cc1`: the GI50 in the test on UACC-62 was 14.9 µM (inactive); in the test with U-251 it was 17 µM (inactive); with K562, 14.1 µM (inactive); with SW-620, 20.7 µM (inactive); in the test with HOP-62 it was 14.1 µM (inactive); in the test on SR it was 18 µM (inactive). In addition, the GI50 with COLO 205 was 15.6 µM (inactive); in the test on NCI-H460, 17.9 µM (inactive); in the test with Malme-3M, 19.4 µM (inactive); in the test with NCI-H226, 17.5 µM (inactive); with HCT-116 it was 12.2 µM (inactive); in the test with IGROV-1, 20.4 µM (inactive). The GI50 in the test with HL-60 is 23.2 µM (inactive); with RPMI-8226, 18.8 µM (inactive); in the test with A549, 16.7 µM (inactive); in the test on TK-10, 26.2 µM (inactive).

With `Cc1cc2nc(O)c(CCC(=O)O)nc2cc1C`, the GI50 was > 100 µM (inactive) with UACC-62; greater than 100 µM with HCT-15; > 100 µM (inactive) in the test on U-251; > 100 µM (inactive) with K562; > 100 µM (inactive) in the test with HOP-62; 43.4 µM (inactive) with SR. For the same compound, the GI50 in the test with COLO 205 was 70.6 µM (inactive); with NCI-H460 it was > 100 µM (inactive); in the test on Malme-3M it was > 100 µM (inactive); with NCI-H226, > 100 µM (inactive); in the test with HCT-116, > 100 µM (inactive); in the test with IGROV-1, > 100 µM (inactive). Further, the GI50 in the test with HL-60, in the test on RPMI-8226, in the test on A549 and with TK-10 was > 100 µM (inactive) throughout.

For `C1CN(P2(N3CC3)=NP(N3CC3)(N3CC3)=NP(N3CC3)(N3CC3)=N2)CCO1` (stereo not given) [FOTRETAMINE], the GI50 in the test with UACC-62 is > 56.6 µM (inactive); in the test with HCT-15, greater than 100 µM; in the test with U-251 it was 71.6 µM (inactive); in the test on K562, > 77.8 µM (inactive); in the test on SW-620, > 100 µM (inactive); in the test on HOP-62, 26.6 µM (inactive). The GI50 was 2.47 µM (inactive) with SR; > 100 µM (inactive) in the test on COLO 205; 4.57 µM (inactive) with NCI-H460; > 100 µM (inactive) in the test with Malme-3M; > 85.5 µM (inactive) in the test on NCI-H226; > 100 µM (inactive) in the test with HCT-116. Moreover, the GI50 is > 100 µM (inactive) in the test on IGROV-1; 36.6 µM (inactive) with HL-60; > 95.7 µM (inactive) with RPMI-8226; > 100 µM (inactive) in the test with A549; > 100 µM (inactive) with TK-10.

For the compound `Cc1ccccc1/C=C/c1csnn1`, the GI50 in the test with UACC-62 is > 100 µM (inactive); with HCT-15 it was greater than 42.2 µM; in the test on U-251, > 100 µM (inactive); with K562 it was > 100 µM (inactive); in the test on SW-620, > 56.4 µM (inactive); in the test on HOP-62, > 100 µM (inactive). In addition, the GI50 with SR was > 100 µM (inactive); with COLO 205, > 100 µM (inactive); in the test with NCI-H460 it was > 47.3 µM (inactive); in the test with Malme-3M it was > 100 µM (inactive); in the test with NCI-H226, > 100 µM (inactive); in the test with HCT-116 it was > 44 µM (inactive). The GI50 was > 100 µM (inactive) in the test with IGROV-1; 21.1 µM (inactive) in the test with HL-60; 33.4 µM (inactive) in the test on RPMI-8226; > 57.3 µM (inactive) in the test on A549; > 100 µM (inactive) in the test on TK-10.

Regarding `O=C1C(c2ccccc2)=[N+]([O-])c2ccc(Cl)cc21`, the GI50 was 17.5 µM (inactive) in the test on UACC-62; 20 µM with HCT-15; 25.9 µM (inactive) in the test on U-251; 32.5 µM (inactive) in the test on K562; 49.2 µM (inactive) in the test on SW-620; 63.4 µM (inactive) in the test with HOP-62. The GI50 with SR was 34.7 µM (inactive); in the test on COLO 205, 14.1 µM (inactive); in the test with NCI-H460 it was 42.4 µM (inactive); with Malme-3M, 26.2 µM (inactive); with NCI-H226 it was 14.7 µM (inactive); with HCT-116 it was 15.8 µM (inactive). Also, the GI50 with IGROV-1 was 20.6 µM (inactive); in the test with HL-60, 10.6 µM (inactive); in the test with RPMI-8226, 21.2 µM (inactive); in the test on A549, 32.1 µM (inactive); in the test on TK-10, 29.2 µM (inactive).

Turning to `O=C1NC(=S)NC(=O)C1=Cc1ccc2ccccc2n1`, the GI50 in the test on UACC-62 was > 100 µM (inactive); in the test with HCT-15, greater than 100 µM; in the test on U-251, > 100 µM (inactive); in the test with K562, > 100 µM (inactive); with SW-620 it was > 100 µM (inactive); with HOP-62 it was > 100 µM (inactive). The GI50 in the test on SR, in the test on COLO 205, in the test on NCI-H460, in the test with Malme-3M, in the test with NCI-H226 and with HCT-116 was > 100 µM (inactive) throughout. Moreover, the GI50 in the test on IGROV-1, in the test on HL-60, with RPMI-8226, in the test with A549 and in the test on TK-10 was > 100 µM (inactive) throughout.

As for `CSC(=O)C[C@@]12O[C@@H]([C@@H](C)C3CCC4[C@@H]5C(O)CC6=CC(=O)C=C[C@]6(C)C5CC[C@@]43C)C[C@](C)(O1)C(C)(C)O2` (stereo not given in full), the GI50 was 10.3 µM (inactive) with UACC-62; 17.3 µM with HCT-15; 12.5 µM (inactive) with U-251; 4.3 µM (inactive) with K562; 17.3 µM (inactive) in the test with SW-620; 18.2 µM (inactive) with HOP-62. In addition, the GI50 in the test with SR is 9.95 µM (inactive); with NCI-H460 it was 19.1 µM (inactive); in the test on Malme-3M, 23.2 µM (inactive); in the test on NCI-H226, 22.3 µM (inactive); in the test with HCT-116, 12.8 µM (inactive); in the test on IGROV-1, 16.1 µM (inactive). Moreover, the GI50 with HL-60 is 7.85 µM (inactive); in the test on RPMI-8226, 4.8 µM (inactive); with A549, 15.5 µM (inactive); in the test on TK-10 it was 17.8 µM (inactive).
